Reference: patent publication US7556938B1, “Nucleic acids encoding potassium channel interactors” (Millennium Pharmaceuticals, Inc., priority 1998, dated 2009)

What was measured:
Type in all cases: cell-based
[1] = target: T1, Kv4.3/KChIP1 (Rattus norvegicus, UniProt Q62897); experiment: Fatty acid modulation of Kv4.3/KChIP1 current in Xenopus oocytes
T1 sequence (Q62897 1-655): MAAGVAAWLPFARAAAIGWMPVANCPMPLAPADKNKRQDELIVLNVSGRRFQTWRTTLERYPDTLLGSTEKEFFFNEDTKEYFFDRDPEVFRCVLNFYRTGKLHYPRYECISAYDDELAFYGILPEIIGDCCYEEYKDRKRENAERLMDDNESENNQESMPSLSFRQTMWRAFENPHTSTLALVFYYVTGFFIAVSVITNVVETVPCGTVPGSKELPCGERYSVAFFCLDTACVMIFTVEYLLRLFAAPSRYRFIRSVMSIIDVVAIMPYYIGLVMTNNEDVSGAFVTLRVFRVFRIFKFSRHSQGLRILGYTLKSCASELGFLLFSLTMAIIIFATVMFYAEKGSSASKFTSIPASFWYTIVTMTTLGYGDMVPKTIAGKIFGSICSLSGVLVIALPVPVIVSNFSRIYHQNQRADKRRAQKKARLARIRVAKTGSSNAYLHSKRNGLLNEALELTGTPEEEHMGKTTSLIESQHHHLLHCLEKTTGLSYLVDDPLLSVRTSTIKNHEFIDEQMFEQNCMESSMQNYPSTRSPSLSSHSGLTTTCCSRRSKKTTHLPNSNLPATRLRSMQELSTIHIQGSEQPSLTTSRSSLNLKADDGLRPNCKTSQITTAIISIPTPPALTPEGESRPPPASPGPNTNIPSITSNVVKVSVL
T1 sequence (Q8R426 1-216 isoform Q8R426-2 partner): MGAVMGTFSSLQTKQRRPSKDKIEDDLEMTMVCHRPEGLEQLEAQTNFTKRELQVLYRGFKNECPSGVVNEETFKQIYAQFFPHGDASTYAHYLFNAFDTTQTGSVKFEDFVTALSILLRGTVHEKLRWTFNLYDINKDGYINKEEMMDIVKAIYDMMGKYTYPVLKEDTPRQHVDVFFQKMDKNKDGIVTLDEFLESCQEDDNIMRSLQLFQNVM
Procedure: Frogs underwent no more than two surgeries and surgeries were performed by well established techniques. Frogs were anesthetized with ice. Total cRNA (1-10 ng) was injected into stage IV Xenopus oocytes that were harvested the previous day. The Xenopus oocytes were incubated in ND96 containing (in mM) 96 NaCl, 2 KCl, 1.8 CaCl2, 1 MgCl2, 5 HEPES, pH 7.6, plus (Gentamycin 50 μg/ml) at 18° C. Xenopus oocytes were studied 3-7 days after injection. The two-electrode voltage-clamp recordings were performed in ND96 solution using a TURBO TEC 03 Clamp Amplifier (ALA Scientific Instruments, Westbury, N.Y.). Both electrodes were filled with 3 M KCl and had electrode resistances ranging from 0.2-1 MOhm. The current signals were filtered at 1000 Hz before transferred on a PC (Gateway, Calif.) using the PULSE software (HEKA, Germany). In this Example, the hypothesis that […] were the missing auxiliary subunits that accounted for the above kinetic discrepancy was investigated by expressing Kv4 alone or together with […] in both CHO cells and Xenopus oocytes, and measuring their inactivation time constants (using art known techniques as described in, for example, An et al. (2000) Nature 403:553-6; Keros, S. and […]. Neuroscience 17: 3476-87; and Villarroel, A. and […]. Neuroscience 16:2522-32). The effects of different concentrations of arachidonic acid on Kv4/KChIP current was studied in Xenopus oocytes. Because the physiological concentrations of arachidonic acid are often under 10 μM (Needleman, et al., 1986 Annu Rev Biochem 55:69-102; Anderson and Welsh, 1990, Proc Natl Acad Sci USA 87:7334-8; Meves, 1994, Prog Neurobiol 43:175-86), arachidonic acid was tested in the 1-10 μM range. […] Further, the slope of amplitude reduction as a function of increasing concentrations was very similar with or without the presence of […]. […] Villarroel and Schwarz, (1996) J.

[2] = target: T2, Kv1.1 (Rattus norvegicus, UniProt P10499); experiment: AA modulation of Kv1.1 current in Xenopus oocytes; conditions: Kv1.1 alone, 10 μM AA
T2 construct: expressed in transfected cells; host or cells: Xenopus oocytes
Procedure: (§1) Frogs underwent no more than two surgeries and surgeries were performed by well established techniques. Frogs were anesthetized with ice. Total cRNA (1-10 ng) was injected into stage IV Xenopus oocytes that were harvested the previous day. The Xenopus oocytes were incubated in ND96 containing (in mM) 96 NaCl, 2 KCl, 1.8 CaCl2, 1 MgCl2, 5 HEPES, pH 7.6, plus (Gentamycin 50 μg/ml) at 18° C. Xenopus oocytes were studied 3-7 days after injection. The two-electrode voltage-clamp recordings were performed in ND96 solution using a TURBO TEC 03 Clamp Amplifier (ALA Scientific Instruments, Westbury, N.Y.). Both electrodes were filled with 3 M KCl and had electrode resistances ranging from 0.2-1 MOhm. The current signals were filtered at 1000 Hz before transferred on a PC (Gateway, Calif.) using the PULSE software (HEKA, Germany).
(§2) In this example, the foregoing was tested by measuring two alpha/auxiliary complexes: Kv4.3/KChIP1 and Kv1.1/Kvβ1. (Kvβ1, which is one of the classic potassium channel beta subunits, dramatically changes Kv1.1 kinetics). Kv4.3/KChIP and Kv1.1/Kvβ1 were expressed respectively in Xenopus oocytes and their resulting currents were recorded in the presence or absence of […] AA. […] Kinetically, […] was much more sensitive to AA modulation than was Kv1.1/Kvβ1 (Table 4).

[3] = target: T3, Kv1.1/Kvβ1 (Rattus norvegicus, UniProt P10499); experiment: AA modulation of Kv1.1/Kvβ1 current in Xenopus oocytes; conditions: Kv1.1/Kvβ1, 10 μM AA, listed as AA
T3 construct: expressed in transfected cells; host or cells: Xenopus oocytes
Procedure: as §1, §2

[4] = tested on: A-current in cultured primary cerebellar granule neurons; experiment: Arachidonic acid effects on the A-current in cultured primary cerebellar granule neurons; conditions: 10 μM arachidonic acid, TEA (10 mM) applied, mean±SEM
Procedure: The arachidonic acid effects on the A-current were also investigated in a neuronal system (cultured primary cerebellar granule neurons) where both Kv4 and KChIPs are present. TEA (10 mM) was applied to block a small sustained outward component. Inactivation time constants of the A current in the absence and presence of 10 μM arachidonic acid were 44±5 ms and 21±3 ms (mean±SEM), respectively. The corresponding peak amplitude was reduced from 2.0±0.6 nA to 1.2±0.4 nA.

[5] = Kv4.3/KChIP1, 10 μM AA, listed as AA

T3 sequence (P10499 whole entry): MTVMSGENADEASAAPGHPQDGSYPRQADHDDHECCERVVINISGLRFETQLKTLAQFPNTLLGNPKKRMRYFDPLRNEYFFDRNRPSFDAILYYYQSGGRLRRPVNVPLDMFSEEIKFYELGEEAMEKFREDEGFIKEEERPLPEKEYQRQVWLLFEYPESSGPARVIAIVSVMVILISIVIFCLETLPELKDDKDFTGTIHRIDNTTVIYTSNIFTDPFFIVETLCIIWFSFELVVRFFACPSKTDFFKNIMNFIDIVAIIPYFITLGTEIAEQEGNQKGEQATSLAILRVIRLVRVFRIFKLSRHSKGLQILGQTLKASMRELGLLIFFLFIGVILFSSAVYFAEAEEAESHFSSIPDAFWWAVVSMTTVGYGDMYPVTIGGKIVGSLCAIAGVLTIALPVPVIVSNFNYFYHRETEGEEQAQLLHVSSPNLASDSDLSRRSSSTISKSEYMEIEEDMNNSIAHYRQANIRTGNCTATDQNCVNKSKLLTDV
T2 sequence (P10499 whole entry): as above

Inactivation time constant (ms ± SEM) [1, 5]: 55 ± 4 ms
Peak amplitude (μA ± SEM) [1, 5]: 21±4 μA
block of Kv4.3 peak amplitude ([1]; Kv4.3/KChIP1, 10 μM fatty acid, vs no-fatty acid control): inhibited significantly
block of Kv4.3 peak amplitude ([1]; Kv4.3/KChIP1, 1-10 μM arachidonic acid): concentration-dependent block
effect on Kv4.3 inactivation time constant ([1]; Kv4.3 co-expressed with KChIP1, 10 μM fatty acid): reduced Kv4.3 inactivation time constant
Peak amplitude (μA ± SEM) [2]: 21 ± 3 μA
Inactivation time constant (ms ± SEM) [3]: 9 ± 1 ms
Peak amplitude (μA ± SEM) [3]: 14±1 μA
Compound: CCCCC/C=C\C/C=C\C/C=C\C/C=C\CCCC(=O)O [arachidonic acid]
effect on inactivation time constant ([1]; presence of KChIP1, 1-10 μM arachidonic acid): decreased in a concentration-dependent manner
Inactivation time constant of the A current [4]: 21 ± 3 ms
peak amplitude of the A current [4]: 1.2±0.4 nA
